# Test results reported in patent publication US10471076B2, “Compositions and methods to treat vision disorders” (YouHealth Biotech, Limited, priority 2014, dated 2019).
# Where “and” joins values, the source holds several entries; their conditions need not be identical. Identical values can stand only once. Entries after “also recorded” stand apart in the source; their conditions may differ.
# Assays:
# [1] = system: naturally occurring cataractous lenses from rabbits; test: Treatment of isolated cataractous rabbit lenses; design: key to cataract grade before treatment / cataract grade after treatment: Grade 0: absence of opacification (gridlines clearly visible); Grade 1: a slight degree of opacification (minimal clouding of gridlines, with gridlines still visible); Grade 2: presence of diffuse opacification involving almost the entire lens (moderate clouding of gridlines, with main gridlines visible); Grade 3: presence of extensive, thick opacification involving the entire lens (total clouding of gridlines, with gridlines not seen at all)
# Source text: FIG. 12A, FIG. 12B, and FIG. 12C show grading system of cataractous lenses. […] The degree of transparency was scored as 0, a clear lens and absence of opacification (gridlines clearly visible, a′); 1, a blurry lens and a slight degree of opacification (minimal clouding of gridlines, with gridlines still visible, b′); 2, a cloudy lens and presence of diffuse opacification involving almost the entire lens (moderate clouding of gridlines, with main gridlines visible, c′); or 3, an opaque lens and presence of extensive thick opacification involving the entire lens (total clouding of gridlines, with gridlines not seen at all, d′). […] Rabbit lenses (n=13) were dissected and incubated with lanosterol for 6 days and subsequently assessed for lens clarity and transparency. Pairs of photographs of each cataractous rabbit lens showing before and after treatment with scores underneath are shown. […] Dog eyes with cataracts (n=7) were treated with lanosterol for 6 weeks and assessed for lens clarity and transparency. A pair of photographs of each study eye before and after treatment is shown with scores underneath. Three control eyes treated with vehicles alone are also presented.
# Treatment of cataractous rabbit lenses. Rabbits were euthanized by CO2 inhalation and lenses were immediately dissected and treated with vehicle or lanosterol dissolved in vehicle to make 25 mM solutions. Lens tissues were incubated in these solutions for 6 days in the dark at room temperature. Cataracts were examined under a microscope and photographed. Degree of cataract was assessed by a blinded examiner using a previously described opacification grading system, shown below^32,33. Improvements in lens clarity and transparency were quantified by visual inspection and grading. Lens clarity was scored by transmission of light, clarity of a grid image underneath the lens (FIG. 12A, FIG. 12B, FIG. 12C), and improvement in overall clarity of a lens or improvement in clarity of localized areas of cortical cataract. Wilcoxon test was used to evaluate the treatment effect.
# Cataract grading system. […]
# [2] = system: dog eyes with cataracts; test: Treatment of cataractous lenses in dogs in vivo; design: key to cataract grade before treatment, treatment group / cataract grade after treatment, treatment group: Grade 0: absence of opacification (no cataract); Grade 1: a slight degree of opacification (incipient stage); Grade 2: presence of diffuse opacification involving almost the entire lens (immature stage); Grade 3: presence of extensive, thick opacification involving the entire lens (mature stage)
# Description: Preparation of drug-loaded nanoparticles. Lanosterol was loaded into a lipid-polymer hybrid nanoparticle through an adapted nanoprecipitation method^34. In brief, the desired concentration of lanosterol was mixed with polycaprolactone (PCL) polymer dissolved in acetonitrile. Lecithin and 1,2-distearoyl-sn-glycero-3-phosphoethanolamine-N-carboxy(polyethylene glycol) 2000 (DSPE-PEG-COOH) were dissolved in a 4% ethanol aqueous solution at 20% of the PCL polymer weight and heated above 60° C. The lanosterol/PCL solution was then added into the preheated lipid solution under gentle stirring followed by rigorous vortexing for 3 min. The mixture solution was then stirred for 2 h to allow the nanoparticles to form and the acetonitrile to evaporate. Next, the nanoparticle solution was washed three times using an Amicon Ultra-4 centrifugal filter (Millipore) with a molecular weight cut-off of 10 kDa to remove the remaining organic solvent and free molecules. The resulting nanoparticles were then re-suspended in PBS buffer for sub-sequent use. The size, size distribution, and surface zeta potential of the drug-loaded nanoparticles were characterized by dynamic light scattering. The loading yield of lanosterol was quantified by high-performance liquid chromatography.
# Treatment of cataractous lenses in dogs. To assess the effect of lanosterol treatment on cataracts in live animals, dogs were pre-medicated with intramuscular injections of acepromaxine and butorphanol. After 20 min, induction of anaesthesia was performed by application of intravenous propofol. Dogs were then immediately intubated and maintained on oxygen and 2% isoflurane at […]. Lanosterol (100 mg)-loaded nanoparticles were initially injected into the vitreous cavity in the test eye using a 28-gauge needle, and then were given every 3 days for the duration of the experiment. Treatment eyes or sham eyes were randomized. […] Degree of cataract severity was assessed by a blinded examiner and scored based on canine cataract stage, shown below^35. Improvements in lens clarity and transparency were quantified. […]
# [3] = system: amyloid-like fibrils of crystallin proteins; test: Re-dissolution of pre-formed amyloid-like fibrils (ThT fluorescence, TEM, turbidity); format: biochemical, human; settings: 0.2 mg/ml aggregates; 500 μM sterols in 500 μM DPPC liposome (b129 prints 500 mM), 37° C., 24 h; TEM and ThT fluorescence; concentration-dependent
# Description: Crystallin aggregates were formed by incubating 5 mg ml^−1 protein solution at 60° C. for 2 h (α-crystallins) or 37° C. for 48 h (β- and γ-crystallins) in the presence of 1 M guanidine chloride. The preformed aggregates were re-suspended in PBS at a final protein concentration of 0.2 mg ml^−1 and were treated with 500 μM sterols in 500 μM DPPC liposome and incubated at 37° C. for 24 h. Aggregates treated with 500 μM DPPC liposome only were used as the controls. […] Aggregates treated with 500 μM DPPC liposome only were used as the controls.
# All protein samples were prepared in 20 mM PBS buffer containing 150 mM NaCl, 1 mM EDTA and 1 mM DTT.
# Protein aggregation and aggregate dissociation. The aggregates of the wild-type and mutated αA- and αB-crystallin proteins were obtained by heating the protein solutions containing 1 M guanidine chloride (ultrapure, Sigma-Aldrich) at a con-centration of 5 mg/ml at 60° C. for 2 h. The aggregates of the wild-type and mutated b- and c-crystallins were prepared by heating the protein solutions containing 1 M guanidine chloride at 37° C. for 48 h. The formation of aggregates was confirmed by ThT fluorescence, turbidity (absorbance at 400 nm) and transmission electron microscopy (TEM) observations. […] After 24 h of treatment, the protein solutions were used for ThT fluorescence, turbidity and negatively stained TEM observations. […]
compound,measurement,setting,value
"CC(C)=CCC[C@@H](C)[C@H]1CC[C@@]2(C)C3=C(CC[C@]12C)[C@@]1(C)CC[C@H](O)C(C)(C)[C@@H]1CC3 [lanosterol, 3β-Hydroxy-8,24-lanostadiene; 8,24-Lanostadien-3β-ol]",cataract grade after treatment,"[1]; isolated rabbit lens incubated in 25 mM lanosterol solution for 6 days, n=13",1 and 0
same,cataract grade before treatment,"[1]; isolated rabbit lens, baseline of each lanosterol-treated sample, n=13",2 and 1 and 3
same,cataract severity / lens clarity,"[1]; isolated rabbit lenses, 25 mM lanosterol, 6 days, P<0.003, Wilcoxon Test",strong trend of reduction in cataract severity; also recorded: reduced cataract severity and increased clarity
same,"cataract grade before treatment, treatment group","[2]; dog study eye, baseline, n=7",1 and 2 and 3
same,"cataract grade after treatment, treatment group","[2]; dog study eye, intravitreal lanosterol (100 mg)-loaded nanoparticles every 3 days plus 25 mM lanosterol eye drops three times daily, 6 weeks, n=7",0 and 1
same,cataract severity / lens clarity,"[2]; dogs in vivo, 6 weeks of lanosterol, P<0.009, Wilcoxon Test",significantly reduced cataract severity and increased lens clarity
same,re-dissolution of aggregated crystallin proteins from amyloid-like fibrils,[3],successfully re-dissolved the aggregated crystallin proteins
